Like-named read-outs stand apart in the source and are kept apart here.
Target: T1, Recombinant human renin (Homo sapiens, UniProt P00797)
T1 construct: purchased Cayman 10006217
T1 sequence (P00797 67-406): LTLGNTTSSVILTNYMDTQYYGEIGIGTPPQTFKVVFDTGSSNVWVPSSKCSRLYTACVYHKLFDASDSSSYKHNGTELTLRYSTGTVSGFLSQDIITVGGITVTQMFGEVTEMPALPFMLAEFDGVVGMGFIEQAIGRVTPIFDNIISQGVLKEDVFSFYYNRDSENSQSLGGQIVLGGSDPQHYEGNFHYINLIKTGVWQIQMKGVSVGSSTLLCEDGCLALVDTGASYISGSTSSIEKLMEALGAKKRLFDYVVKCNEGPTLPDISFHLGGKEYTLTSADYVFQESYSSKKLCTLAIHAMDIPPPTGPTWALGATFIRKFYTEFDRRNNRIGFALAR
Assay: Inhibition of renin (fluorogenic peptide substrate)
Format: biochemical
Method: Recombinant human renin (Cayman, no. 10006217) at a concentration of 5 nM was incubated with the test compounds at various concentrations and the synthetic substrate Dabcyl-γ-Abu-[…]EDANS (Bachem, no. M-2050; Dabcyl means the 4-(4-dimethylamino-phenylazo)-benzoyl group and EDANS means the amide with 5-[(2-aminoethyl)amino]-naphthalene-1-sulfonic acid) at a concentration of 10 μM for 2 h at room temperature in 0.05 M Tris buffer (pH 8) containing 0.1 M NaCl, 2.5 mM EDTA and 1.25 mg/ml bovine serum albumin. The increase in fluorescence, which is due to fluorescence resonance energy transfer, was recorded at an excitation wavelength of 330 nm and an emission wavelength of 485 nm in a microplate spectrofluorometer. Inhibitory concentrations IC50 were calculated from the percentage of inhibition of renin activity as a function of the concentration of the test compound.

[1] = renin 5 nM, substrate Dabcyl-γ-Abu-[…]-EDANS 10 μM, 2 h room temperature, Tris buffer pH 8, compounds tested as the obtained salt, read-out: IC50 values for inhibition of renin (fluorogenic peptide substrate)

## Cc1ccccc1Cc1c(C(=O)N2CCNCC2)c2ccccc2n1-c1ccsc1 [Example 113]
[1]
  IC50: 230 nM

## O=C(c1c(Oc2ccccc2)n(-c2ccccc2)c2ccccc12)N1CCNC(CO)C1 (centres unmarked) [Example 24, (3-Hydroxymethyl-piperazin-1-yl)-(2-phenoxy-1-phenyl-1H-indol-3-yl)-methanone]
[1]
  IC50: 1600 nM

## Cc1ccc(F)cc1Oc1c(C(=O)N2CCNCC2)c2ccccc2n1C1C=CCCC1 (centres unmarked) [Example 22, [1-Cyclohex-2-enyl-2-(5-fluoro-2-methyl-phenoxy)-1H-indol-3-yl]-piperazin-1-yl-methanone]
[1]
  IC50: 7.2 nM

## O=C(c1c(Oc2ccccc2)n(-c2ccccc2)c2ccccc12)N1CCNCC1Cc1ccccc1 (centres unmarked) [Example 126]
[1]
  IC50: 4500 nM

## O=C(c1c(Oc2ccccc2)n(-c2ccccc2)c2ccccc12)N1CCCNCC1 [Example 5, Perhydro-1,4-diazepin-1-yl-(2-phenoxy-1-phenyl-1H-indol-3-yl)-methanone]
[1]
  IC50: 3400 nM

## CN(c1ccccc1)c1c(C(=O)N2CCNCC2)c2ccccc2n1-c1ccccc1 [Example 3, [2-(Methyl-phenyl-amino)-1-phenyl-1H-indol-3-yl]-piperazin-1-yl-methanone]
  IC50: 3200 nM

## Cc1ccccc1Sc1c(C(=O)N2CCNCC2)c2ccccc2n1-c1ccccc1 [Example 108]
[1]
  IC50: 71 nM

## Cc1ccc(F)cc1Oc1c(C(=O)N2CCNCC2)c2ccc(OCC(=O)O)cc2n1-c1ccccc1 [Example 30, [2-(5-Fluoro-2-methyl-phenoxy)-1-phenyl-3-(piperazine-1-carbonyl)-1H-indol-6-yloxy]-acetic acid]
[1]
  IC50: 130 nM

From patent US8211885B2, “Cyclic indole-3-carboxamides, their preparation and their use as pharmaceuticals” (Sanofi-Aventis, priority 2008, dated 2012)
